Assays:
[1] = tested on: Malva sylvestris; assay: Herbicidal activity against Malva sylvestris assessed as total dry weight at 0.225 kg/ha applied as spray during post-emergence (reference value: 4.1 MT/ha); type: functional
[2] = tested on: Malva sylvestris; assay: Herbicidal activity against Malva sylvestris assessed as total fresh weight at 0.225 kg/ha applied as spray during post-emergence (reference value: 23.6 MT/ha); type: functional
[3] = tested on: Chenopodiastrum murale; assay: Herbicidal activity against Chenopodium murale assessed as total fresh weight at 0.225 kg/ha applied as spray during postemergence (reference value: 23.6 MT/ha); type: functional
[4] = tested on: Cyperus rotundus; assay: Herbicidal activity against Cyperus rotundus assessed as total fresh weight at 0.225 kg/ha applied as spray during post-emergence (reference value: 23.6 MT/ha); type: functional
[5] = tested on: Cyperus rotundus; assay: Herbicidal activity against Cyperus rotundus assessed as total dry weight at 0.225 kg/ha applied as spray during post-emergence (reference value: 4.1 MT/ha); type: functional
[6] = tested on: Allium cepa; assay: Phytotoxicity in Allium cepa (onion) seedling assessed as total fresh weight at 0.225 kg/ha applied as spray during post-emergence (reference value: 7.71 MT/ha); type: organism-based; conditions: in vivo, other
[7] = tested on: Chenopodiastrum murale; assay: Herbicidal activity against Chenopodium murale assessed as total dry weight at 0.225 kg/ha applied as spray during postemergence (reference value: 4.1 MT/ha); type: functional
[8] = tested on: Cyperus rotundus; assay: Herbicidal activity against Cyperus rotundus assessed as total fresh weight at 0.6 kg/ha applied as spray during post-emergence (reference value: 23.6 MT/ha); type: functional
[9] = tested on: Allium cepa; assay: Phytotoxicity in Allium cepa (onion) seedling assessed as total fresh weight at 0.6 kg/ha applied as spray before seed sowing (reference value: 7.71 MT/ha); type: organism-based; conditions: in vivo, other
[10] = tested on: Allium cepa; assay: Phytotoxicity in Allium cepa (onion) seedling assessed as total fresh weight at 0.6 kg/ha applied as spray during post-emergence (reference value: 7.71 MT/ha); type: organism-based; conditions: in vivo, other
[11] = tested on: Cyperus rotundus; assay: Herbicidal activity against Cyperus rotundus assessed as total dry weight at 0.6 kg/ha applied as spray before seed sowing (reference value: 4.1 MT/ha); type: functional
[12] = tested on: Chenopodiastrum murale; assay: Herbicidal activity against Chenopodium murale assessed as total fresh weight at 0.6 kg/ha applied as spray before seed sowing (reference value: 23.6 MT/ha); type: functional
[13] = tested on: Malva sylvestris; assay: Herbicidal activity against Malva sylvestris assessed as decrease in total dry weight at 0.6 kg/ha applied as spray during post-emergence relative to weed-infested control; type: functional; parameters: scale not given: the % may be the effect or the level left
[14] = tested on: Chenopodiastrum murale; assay: Herbicidal activity against Chenopodium murale assessed as total dry weight at 0.6 kg/ha applied as spray before seed sowing (reference value: 4.1 MT/ha); type: functional
[15] = tested on: Cyperus rotundus; assay: Herbicidal activity against Cyperus rotundus assessed as decrease in total dry weight at 0.6 kg/ha applied as spray during post-emergence relative to weed-infested control; type: functional; parameters: scale not given: the % may be the effect or the level left
[16] = tested on: Malva sylvestris; assay: Herbicidal activity against Malva sylvestris assessed as total fresh weight at 0.6 kg/ha applied as spray before seed sowing (reference value: 23.6 MT/ha); type: functional
[17] = tested on: Cyperus rotundus; assay: Herbicidal activity against Cyperus rotundus assessed as total fresh weight at 0.6 kg/ha applied as spray before seed sowing (reference value: 23.6 MT/ha); type: functional
[18] = tested on: Malva sylvestris; assay: Herbicidal activity against Malva sylvestris assessed as total dry weight at 0.6 kg/ha applied as spray before seed sowing (reference value: 4.1 MT/ha); type: functional
[19] = tested on: Malva sylvestris; assay: Herbicidal activity against Malva sylvestris assessed as total fresh weight at 0.6 kg/ha applied as spray during post-emergence (reference value: 23.6 MT/ha); type: functional
[20] = tested on: Chenopodiastrum murale; assay: Herbicidal activity against Chenopodium murale assessed as decrease in total dry weight at 0.6 kg/ha applied as spray during postemergence relative to weed-infested control; type: functional; parameters: scale not given: the % may be the effect or the level left
[21] = tested on: Chenopodiastrum murale; assay: Herbicidal activity against Chenopodium murale assessed as total fresh weight at 0.6 kg/ha applied as spray during postemergence (reference value: 23.6 MT/ha); type: functional
[22] = tested on: Malva sylvestris; assay: Herbicidal activity against Malva sylvestris assessed as decrease in total dry weight at 0.02 kg/ha applied as spray during post-emergence relative to weed-infested control; type: functional; parameters: scale not given: the % may be the effect or the level left
[23] = tested on: Cyperus rotundus; assay: Herbicidal activity against Cyperus rotundus assessed as decrease in total dry weight at 0.02 kg/ha applied as spray during post-emergence relative to weed-infested control; type: functional; parameters: scale not given: the % may be the effect or the level left
[24] = tested on: Cyperus rotundus; assay: Herbicidal activity against Cyperus rotundus assessed as total fresh weight at 0.02 kg/ha applied as spray during post-emergence (reference value: 23.6 MT/ha); type: functional
[25] = tested on: Chenopodiastrum murale; assay: Herbicidal activity against Chenopodium murale assessed as total fresh weight at 0.02 kg/ha applied as spray during postemergence (reference value: 23.6 MT/ha); type: functional
[26] = tested on: Chenopodiastrum murale; assay: Herbicidal activity against Chenopodium murale assessed as decrease in total dry weight at 0.02 kg/ha applied as spray during postemergence relative to weed-infested control; type: functional; parameters: scale not given: the % may be the effect or the level left
[27] = tested on: Malva sylvestris; assay: Herbicidal activity against Malva sylvestris assessed as total fresh weight at 0.02 kg/ha applied as spray during post-emergence (reference value: 23.6 MT/ha); type: functional
[28] = tested on: Allium cepa; assay: Phytotoxicity in Allium cepa (onion) seedling assessed as total fresh weight at 0.02 kg/ha applied as spray during postemergence (reference value: 7.71 MT/ha); type: organism-based; conditions: in vivo, other
[29] = tested on: Cyperus rotundus; assay: Herbicidal activity against Cyperus rotundus assessed as total fresh weight at 1.5 kg/ha applied as spray before seed sowing (reference value: 23.6 MT/ha); type: functional; conditions: pooled result: one value given for 3 cell lines, strains, targets or settings
[30] = tested on: Cyperus rotundus; assay: Herbicidal activity against Cyperus rotundus assessed as total dry weight at 1.5 kg/ha applied as spray before seed sowing (reference value: 4.1 MT/ha); type: functional; conditions: pooled result: one value given for 3 cell lines, strains, targets or settings
[31] = tested on: Allium cepa; assay: Phytotoxicity in Allium cepa (onion) seedling assessed as total fresh weight at 1.5 kg/ha applied as spray before seed sowing (reference value: 7.71 MT/ha); type: organism-based; conditions: in vivo, other

C[C@@H](Oc1ccc(Oc2ccc(C(F)(F)F)cn2)cc1)C(=O)O [FLUAZIFOP-P]
Activity [1]: 2.9 MT/ha | Activity [2]: 15.6 MT/ha | Activity [3]: 15.6 MT/ha | Activity [4]: 15.6 MT/ha | Activity [5]: 2.9 MT/ha | Activity [6]: 9.18 MT/ha | Activity [7]: 2.9 MT/ha

CCOc1cc(Oc2ccc(C(F)(F)F)cc2Cl)ccc1[N+](=O)[O-] [OXYFLUORFEN]
Activity [8]: 7.7 MT/ha | Activity [9]: 8.68 MT/ha | Activity [10]: 17.01 MT/ha | Activity [11]: 2.93 MT/ha | Activity [12]: 15.8 MT/ha | Activity [13]: 68% | Activity [14]: 2.93 MT/ha | Activity [15]: 68% | Activity [16]: 15.8 MT/ha | Activity [17]: 15.8 MT/ha | Activity [18]: 2.93 MT/ha | Activity [19]: 7.7 MT/ha | Activity [20]: 68% | Activity [21]: 7.7 MT/ha

C[n+]1ccc(-c2cc[n+](C)cc2)cc1 [PARAQUAT]
Activity [22]: 60% | Activity [23]: 60% | Activity [24]: 8.2 MT/ha | Activity [25]: 8.2 MT/ha | Activity [26]: 60% | Activity [27]: 8.2 MT/ha | Activity [28]: 14.11 MT/ha

CCC(CC)Nc1c([N+](=O)[O-])cc(C)c(C)c1[N+](=O)[O-] [PENDIMETHALIN]
Activity [29]: 17.5 MT/ha | Activity [30]: 2.9 MT/ha | Activity [31]: 7.42 MT/ha

Reference: ChEMBL document CHEMBL3045187, “Chemical weed control in seedbed sown onion (Allium cepa L.)” (Crop Prot, 2006)
